Test results: ChEMBL document CHEMBL1155519, “Discovery of N-phenyl-4-(thiazol-5-yl)pyrimidin-2-amine aurora kinase inhibitors” (J Med Chem, 2010)
Active and inactive are the calls of the source. The rule behind the calls is not given here.

How the values were obtained:
Aurora kinase A = target: T1, Aurora kinase A (Homo sapiens, UniProt O14965); experiment: Inhibition of human recombinant Aurora A after 30 mins
T1 sequence (O14965 whole entry): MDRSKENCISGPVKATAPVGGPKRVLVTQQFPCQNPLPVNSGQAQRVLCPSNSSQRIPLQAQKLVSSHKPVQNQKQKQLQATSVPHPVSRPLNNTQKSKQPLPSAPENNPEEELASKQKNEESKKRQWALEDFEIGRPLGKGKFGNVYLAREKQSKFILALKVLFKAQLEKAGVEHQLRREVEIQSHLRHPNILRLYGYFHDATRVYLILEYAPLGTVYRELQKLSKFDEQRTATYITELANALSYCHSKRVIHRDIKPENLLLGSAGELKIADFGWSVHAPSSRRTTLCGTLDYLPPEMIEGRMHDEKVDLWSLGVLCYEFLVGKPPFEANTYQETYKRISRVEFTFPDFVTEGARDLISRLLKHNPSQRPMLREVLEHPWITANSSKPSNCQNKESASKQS

[1] = target: Cyclin-dependent kinase 7 (Homo sapiens, UniProt P50613); experiment: Inhibition of CDK7
Cyclin-dependent kinase 7, sequence (P50613 whole entry): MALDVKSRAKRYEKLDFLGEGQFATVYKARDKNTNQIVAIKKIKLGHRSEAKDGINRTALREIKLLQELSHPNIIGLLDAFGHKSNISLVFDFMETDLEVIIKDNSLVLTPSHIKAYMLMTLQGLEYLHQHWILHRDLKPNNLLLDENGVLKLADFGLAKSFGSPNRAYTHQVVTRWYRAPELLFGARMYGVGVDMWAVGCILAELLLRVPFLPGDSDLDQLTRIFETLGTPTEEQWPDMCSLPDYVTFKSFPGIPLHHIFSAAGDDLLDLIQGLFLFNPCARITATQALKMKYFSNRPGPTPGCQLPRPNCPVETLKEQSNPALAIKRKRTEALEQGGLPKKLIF

[2] = Inhibition of Aurora kinase in human A549 cells assessed as concentration required for half-maximal inhibition of histone H3 serine-10 phosphorylation after 7 hrs immunofluorescence microscopy; assay type: cell-based; conditions: A549, 7 h
U2OS [3] = experiment: Inhibition of Aurora kinase in nocodazole-synchronized human U2OS cells assessed as reduction of histone H3 serine-10 phosphorylation at 0.07 to 10 uM after 2 hrs immunofluorescence microscopy; assay type: cell-based
MIA PaCa-2 = experiment: Cytotoxicity against human MIAPaCa2 cells after 96 hrs by MTT assay; assay type: functional, cell-based; conditions: MIA PaCa-2, 96 h
[4] = target: Cyclin-dependent kinase 1 (Homo sapiens, UniProt P06493); experiment: Inhibition of CDK1
Cyclin-dependent kinase 1, sequence (P06493 whole entry): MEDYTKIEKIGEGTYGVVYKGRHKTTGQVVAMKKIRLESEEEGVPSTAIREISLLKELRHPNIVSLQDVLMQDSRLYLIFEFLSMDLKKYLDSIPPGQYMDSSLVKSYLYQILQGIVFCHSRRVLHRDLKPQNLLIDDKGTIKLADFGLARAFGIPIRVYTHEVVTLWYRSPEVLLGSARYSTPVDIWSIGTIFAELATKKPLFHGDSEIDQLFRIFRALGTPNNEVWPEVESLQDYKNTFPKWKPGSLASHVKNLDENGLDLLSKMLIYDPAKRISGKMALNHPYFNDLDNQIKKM

U2OS [5] = experiment: Inhibition of Aurora kinase in asynchronous human U2OS cells assessed as reduction of histone H3 serine-10 phosphorylation at 150 nM after 7 hrs immunofluorescence microscopy; assay type: cell-based
[6] = target: Cyclin-dependent kinase 2 (Homo sapiens, UniProt P24941)
A2780 = experiment: Cytotoxicity against human A2780 cells after 96 hrs by MTT assay; assay type: functional, cell-based; conditions: A2780, 96 h
MCF7 [7] = experiment: Induction of p53 protein expression in human MCF7 cells at 0.07 to 10 uM after 7 hrs by fluorescent microscopy; assay type: functional, cell-based
[8] = target: Cyclin-dependent kinase 9 (Homo sapiens, UniProt P50750); experiment: Inhibition of CDK9
Cyclin-dependent kinase 9, sequence (P50750 whole entry): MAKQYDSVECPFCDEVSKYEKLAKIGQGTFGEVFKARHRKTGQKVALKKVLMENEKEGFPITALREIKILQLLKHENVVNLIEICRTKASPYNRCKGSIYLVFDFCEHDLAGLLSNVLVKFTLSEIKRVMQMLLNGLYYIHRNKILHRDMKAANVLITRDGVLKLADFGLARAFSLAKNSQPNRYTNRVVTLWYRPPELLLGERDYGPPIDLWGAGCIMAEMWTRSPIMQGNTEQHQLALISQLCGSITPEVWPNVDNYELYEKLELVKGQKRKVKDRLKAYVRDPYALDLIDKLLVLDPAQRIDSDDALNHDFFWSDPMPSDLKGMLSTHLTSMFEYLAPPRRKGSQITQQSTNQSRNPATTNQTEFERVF

Aurora kinase B = Aurora kinase B (Homo sapiens, UniProt Q96GD4); experiment: Inhibition of human recombinant Aurora B after 60 mins
Aurora kinase B, sequence (Q96GD4 whole entry): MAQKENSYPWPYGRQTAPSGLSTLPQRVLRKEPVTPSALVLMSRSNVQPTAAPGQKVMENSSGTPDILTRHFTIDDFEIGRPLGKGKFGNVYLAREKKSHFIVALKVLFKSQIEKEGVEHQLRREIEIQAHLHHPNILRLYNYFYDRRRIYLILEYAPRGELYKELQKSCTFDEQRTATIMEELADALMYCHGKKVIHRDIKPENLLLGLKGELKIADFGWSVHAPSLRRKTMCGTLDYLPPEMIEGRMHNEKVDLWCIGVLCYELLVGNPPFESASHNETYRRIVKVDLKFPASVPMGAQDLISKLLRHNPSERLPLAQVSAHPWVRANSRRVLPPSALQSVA

[9] = target: Cyclin-dependent kinase 4 (Homo sapiens, UniProt P11802); experiment: Inhibition of CDK4
Cyclin-dependent kinase 4, sequence (P11802 whole entry): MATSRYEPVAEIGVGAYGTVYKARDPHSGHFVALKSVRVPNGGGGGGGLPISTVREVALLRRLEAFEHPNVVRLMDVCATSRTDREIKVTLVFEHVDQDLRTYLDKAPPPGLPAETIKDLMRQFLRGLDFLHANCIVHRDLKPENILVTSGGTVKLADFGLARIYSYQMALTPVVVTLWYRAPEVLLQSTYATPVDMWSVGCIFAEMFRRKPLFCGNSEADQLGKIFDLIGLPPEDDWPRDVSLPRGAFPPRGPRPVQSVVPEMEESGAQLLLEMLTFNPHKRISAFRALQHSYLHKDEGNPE

MCF7 [10] = experiment: Induction of p53 protein expression in human MCF7 cells at 150 nM after 7 hrs by fluorescent microscopy; assay type: functional, cell-based

Row | SMILES | Ki (Aurora kinase A) [nM] | Ki [1] [nM] | IC50 [2] [nM] | inhibition (U2OS [3]) | IC50 (MIA PaCa-2) [nM] | Ki [4] [nM] | Activity (U2OS [5]) | Ki [6] [nM] | IC50 (A2780) [nM] | Activity (MCF7 [7]) | Ki [8] [nM] | Ki (Aurora kinase B) [nM] | Ki [9] [nM] | Activity (MCF7 [10])
1 | CNc1nc(C)c(-c2ccnc(Nc3cc(OC)c(OC)c(OC)c3)n2)s1 | 1 | 370 | 280 | Active | 62 | 367 | inactive | 256 | 24 | inactive | 6 | 3 | 955 | –
2 | Cc1nc(C)c(-c2ccnc(Nc3ccc(N4CCOCC4)cc3)n2)s1 | 4 | > 10000 | 860 | Active | 871 | > 10000 | inactive | 1040 | 332 | inactive | > 10000 | 9 | 2170 | –
3 | CCNc1nc(C)c(-c2ccnc(Nc3ccc(N4CCOCC4)cc3)n2)s1 | 14 | > 10000 | 570 | Active | 173 | > 10000 | inactive | 151 | 81 | inactive | 559 | 6 | 196 | –
4 | COc1cc(Nc2nccc(-c3sc(C)nc3C)n2)cc(OC)c1OC | 0.4 | 243 | 130 | Active | 22 | 706 | inactive | 239 | 10 | inactive | 11 | 2 | 666 | –
5 | CCNc1nc(C)c(-c2ccnc(Nc3cc(OC)c(OC)c(OC)c3)n2)s1 | 3 | 1390 | 1880 | Active | 994 | 1220 | inactive | 463 | 389 | inactive | 564 | 6 | > 10000 | –
6 | CNc1nc(C)c(-c2ccnc(Nc3ccc(N4CCN(C(C)=O)CC4)cc3)n2)s1 | 12 | 1080 | – | – | 622 | 851 | – | 297 | 221 | – | 448 | 9.7 | 22 | –
7 | Cc1nc(N)sc1-c1ccnc(Nc2cccc([N+](=O)[O-])c2)n1 | – | – | – | Active | 139 | – | Active | – | 48 | – | – | – | – | Active
